# According to US8192962B2, “Processes for detecting toxic substances” (Daikin Industries, Ltd., priority 2001, dated 2012):
# System: Metabolism protein genes
# Test: DNA chip mRNA expression in yeast, metabolism protein genes (Table 7)
# Format: cell-based, Saccharomyces cerevisiae S288C
# Procedure, shortened: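 Whole-genome yeast DNA chip hybridization (65° C., >12 h) of Cy-labeled cDNA from S288C cells exposed 2 h at 25° C. to a sub-lethal toxicant dose in YPD; value is intensity relative to chemical-free control.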
compound,measurement,setting,value
"CCCCCCCCCCCCOS(=O)(=O)[O-].[Na+] [(18), sodium lauryl sulfate]",The level of expressed mRNA in the presence of chemical substance/The level of expressed mRNA in the absence of chemical substance,yeast gene YAL012W,0.8
same,The level of expressed mRNA in the presence of chemical substance/The level of expressed mRNA in the absence of chemical substance,yeast gene YAL038W,1.0
same,level of expressed mRNA in the presence/in the absence of chemical substance,yeast gene YBR003W,1.3
same,level of expressed mRNA in the presence/in the absence of chemical substance,yeast gene YBR011C,1.1
same,level of expressed mRNA in the presence/in the absence of chemical substance,yeast gene YBR020W,0.9
same,The level of expressed mRNA in the presence of chemical substance/The level of expressed mRNA in the absence of chemical substance,yeast gene YBR023C,0.9
same,The level of expressed mRNA in the presence of chemical substance/The level of expressed mRNA in the absence of chemical substance,yeast gene YBR029C,0.8
same,The level of expressed mRNA in the presence of chemical substance/The level of expressed mRNA in the absence of chemical substance,yeast gene YBR183W,2.4
same,The level of expressed mRNA in the presence of chemical substance/The level of expressed mRNA in the absence of chemical substance,yeast gene YBR222C,0.9
same,The level of expressed mRNA in the presence of chemical substance/The level of expressed mRNA in the absence of chemical substance,yeast gene YBR256C,3.3
same,The level of expressed mRNA in the presence of chemical substance/The level of expressed mRNA in the absence of chemical substance,yeast gene YCL009C,0.8
same,The level of expressed mRNA in the presence of chemical substance/The level of expressed mRNA in the absence of chemical substance,yeast gene YCL064C,0.3
same,level of expressed mRNA in the presence/in the absence of chemical substance,yeast gene YCR010C,1.5
same,level of expressed mRNA in the presence/in the absence of chemical substance,yeast gene YCR034W,0.7
same,The level of expressed mRNA in the presence of chemical substance/The level of expressed mRNA in the absence of chemical substance,yeast gene YCR048W,0.8
same,The level of expressed mRNA in the presence of chemical substance/The level of expressed mRNA in the absence of chemical substance,yeast gene YCR098C,1.6
same,The level of expressed mRNA in the presence of chemical substance/The level of expressed mRNA in the absence of chemical substance,yeast gene YDL174C,4.0
same,The level of expressed mRNA in the presence of chemical substance/The level of expressed mRNA in the absence of chemical substance,yeast gene YDR019C,1.6
same,level of expressed mRNA in the presence/in the absence of chemical substance,yeast gene YDR050C,2.3
same,level of expressed mRNA in the presence/in the absence of chemical substance,yeast gene YDR073W,2.3
same,level of expressed mRNA in the presence/in the absence of chemical substance,yeast gene YDR123C,1.0
same,level of expressed mRNA in the presence/in the absence of chemical substance,yeast gene YDR178W,2.3
same,level of expressed mRNA in the presence/in the absence of chemical substance,yeast gene YDR277C,1.7
same,level of expressed mRNA in the presence/in the absence of chemical substance,yeast gene YDR284C,1.5
same,level of expressed mRNA in the presence/in the absence of chemical substance,yeast gene YDR345C,1.8
same,The level of expressed mRNA in the presence of chemical substance/The level of expressed mRNA in the absence of chemical substance,yeast gene YDR380W,0.8
same,level of expressed mRNA in the presence/in the absence of chemical substance,yeast gene YDR400W,0.8
same,level of expressed mRNA in the presence/in the absence of chemical substance,yeast gene YDR408C,1.1
same,level of expressed mRNA in the presence/in the absence of chemical substance,yeast gene YDR483W,1.4
same,The level of expressed mRNA in the presence of chemical substance/The level of expressed mRNA in the absence of chemical substance,yeast gene YDR497C,1.8
same,The level of expressed mRNA in the presence of chemical substance/The level of expressed mRNA in the absence of chemical substance,yeast gene YDR502C,0.9
same,The level of expressed mRNA in the presence of chemical substance/The level of expressed mRNA in the absence of chemical substance,yeast gene YDR516C,1.2
same,level of expressed mRNA in the presence/in the absence of chemical substance,yeast gene YEL063C,0.7
same,level of expressed mRNA in the presence/in the absence of chemical substance,yeast gene YER015W,2.6
same,The level of expressed mRNA in the presence of chemical substance/The level of expressed mRNA in the absence of chemical substance,yeast gene YER026C,3.2
same,The level of expressed mRNA in the presence of chemical substance/The level of expressed mRNA in the absence of chemical substance,yeast gene YER053C,2.3
same,The level of expressed mRNA in the presence of chemical substance/The level of expressed mRNA in the absence of chemical substance,yeast gene YER069W,0.9
same,level of expressed mRNA in the presence/in the absence of chemical substance,yeast gene YER081W,1.7
same,The level of expressed mRNA in the presence of chemical substance/The level of expressed mRNA in the absence of chemical substance,yeast gene YER096W,1.2
same,level of expressed mRNA in the presence/in the absence of chemical substance,yeast gene YER120W,1.0
same,The level of expressed mRNA in the presence of chemical substance/The level of expressed mRNA in the absence of chemical substance,yeast gene YER178W,0.9
same,level of expressed mRNA in the presence/in the absence of chemical substance,yeast gene YFL011W,1.0
same,The level of expressed mRNA in the presence of chemical substance/The level of expressed mRNA in the absence of chemical substance,yeast gene YFL014W,8.8
same,The level of expressed mRNA in the presence of chemical substance/The level of expressed mRNA in the absence of chemical substance,yeast gene YFL030W,0.8
same,The level of expressed mRNA in the presence of chemical substance/The level of expressed mRNA in the absence of chemical substance,yeast gene YFL031W,1.1
same,The level of expressed mRNA in the presence of chemical substance/The level of expressed mRNA in the absence of chemical substance,yeast gene YFL056C,1.1
same,The level of expressed mRNA in the presence of chemical substance/The level of expressed mRNA in the absence of chemical substance,yeast gene YFL057C,1.3
same,The level of expressed mRNA in the presence of chemical substance/The level of expressed mRNA in the absence of chemical substance,yeast gene YFR047C,1.6
same,level of expressed mRNA in the presence/in the absence of chemical substance,yeast gene YGL012W,1.1
same,The level of expressed mRNA in the presence of chemical substance/The level of expressed mRNA in the absence of chemical substance,yeast gene YGL022W,0.7
same,level of expressed mRNA in the presence/in the absence of chemical substance,yeast gene YGL115W,1.2
same,The level of expressed mRNA in the presence of chemical substance/The level of expressed mRNA in the absence of chemical substance,yeast gene YGL126W,0.9
same,level of expressed mRNA in the presence/in the absence of chemical substance,yeast gene YGL205W,9.1
same,The level of expressed mRNA in the presence of chemical substance/The level of expressed mRNA in the absence of chemical substance,yeast gene YGL209W,1.5
same,The level of expressed mRNA in the presence of chemical substance/The level of expressed mRNA in the absence of chemical substance,yeast gene YGL248W,1.2
same,The level of expressed mRNA in the presence of chemical substance/The level of expressed mRNA in the absence of chemical substance,yeast gene YGR037C,2.0
same,The level of expressed mRNA in the presence of chemical substance/The level of expressed mRNA in the absence of chemical substance,yeast gene YGR055W,0.7
same,level of expressed mRNA in the presence/in the absence of chemical substance,yeast gene YGR096W,1.0
same,level of expressed mRNA in the presence/in the absence of chemical substance,yeast gene YGR191W,0.8
same,The level of expressed mRNA in the presence of chemical substance/The level of expressed mRNA in the absence of chemical substance,yeast gene YGR194C,2.0
same,level of expressed mRNA in the presence/in the absence of chemical substance,yeast gene YGR204W,0.7
same,The level of expressed mRNA in the presence of chemical substance/The level of expressed mRNA in the absence of chemical substance,yeast gene YGR256W,0.8
same,The level of expressed mRNA in the presence of chemical substance/The level of expressed mRNA in the absence of chemical substance,yeast gene YGR282C,1.5
same,level of expressed mRNA in the presence/in the absence of chemical substance,yeast gene YGR288W,1.3
same,level of expressed mRNA in the presence/in the absence of chemical substance,yeast gene YHR025W,0.6
same,The level of expressed mRNA in the presence of chemical substance/The level of expressed mRNA in the absence of chemical substance,yeast gene YHR111W,1.2
same,level of expressed mRNA in the presence/in the absence of chemical substance,yeast gene YHR123W,1.0
same,The level of expressed mRNA in the presence of chemical substance/The level of expressed mRNA in the absence of chemical substance,yeast gene YHR137W,1.3
same,The level of expressed mRNA in the presence of chemical substance/The level of expressed mRNA in the absence of chemical substance,yeast gene YHR174W,1.2
same,The level of expressed mRNA in the presence of chemical substance/The level of expressed mRNA in the absence of chemical substance,yeast gene YHR176W,1.6
same,level of expressed mRNA in the presence/in the absence of chemical substance,yeast gene YHR210C,1.2
same,level of expressed mRNA in the presence/in the absence of chemical substance,yeast gene YIL006W,0.9
same,The level of expressed mRNA in the presence of chemical substance/The level of expressed mRNA in the absence of chemical substance,yeast gene YIL045W,1.8
same,The level of expressed mRNA in the presence of chemical substance/The level of expressed mRNA in the absence of chemical substance,yeast gene YIL107C,2.0
same,The level of expressed mRNA in the presence of chemical substance/The level of expressed mRNA in the absence of chemical substance,yeast gene YIL154C,1.0
same,The level of expressed mRNA in the presence of chemical substance/The level of expressed mRNA in the absence of chemical substance,yeast gene YIL155C,1.4
same,The level of expressed mRNA in the presence of chemical substance/The level of expressed mRNA in the absence of chemical substance,yeast gene YIL167W,0.8
same,The level of expressed mRNA in the presence of chemical substance/The level of expressed mRNA in the absence of chemical substance,yeast gene YIR034C,1.0
same,The level of expressed mRNA in the presence of chemical substance/The level of expressed mRNA in the absence of chemical substance,yeast gene YIR036C,1.3
same,The level of expressed mRNA in the presence of chemical substance/The level of expressed mRNA in the absence of chemical substance,yeast gene YJL031C,1.9
same,The level of expressed mRNA in the presence of chemical substance/The level of expressed mRNA in the absence of chemical substance,yeast gene YJL068C,1.5
same,The level of expressed mRNA in the presence of chemical substance/The level of expressed mRNA in the absence of chemical substance,yeast gene YJL088W,0.9
same,The level of expressed mRNA in the presence of chemical substance/The level of expressed mRNA in the absence of chemical substance,yeast gene YJL099W,1.6
same,level of expressed mRNA in the presence/in the absence of chemical substance,yeast gene YJL121C,1.0
same,The level of expressed mRNA in the presence of chemical substance/The level of expressed mRNA in the absence of chemical substance,yeast gene YJL155C,3.1
same,level of expressed mRNA in the presence/in the absence of chemical substance,yeast gene YJL167W,2.1
same,The level of expressed mRNA in the presence of chemical substance/The level of expressed mRNA in the absence of chemical substance,yeast gene YJL172W,1.8
same,level of expressed mRNA in the presence/in the absence of chemical substance,yeast gene YJL216C,2.0
same,The level of expressed mRNA in the presence of chemical substance/The level of expressed mRNA in the absence of chemical substance,yeast gene YJL219W,1.2
same,level of expressed mRNA in the presence/in the absence of chemical substance,yeast gene YJR077C,0.8
same,The level of expressed mRNA in the presence of chemical substance/The level of expressed mRNA in the absence of chemical substance,yeast gene YJR137C,0.8
same,level of expressed mRNA in the presence/in the absence of chemical substance,yeast gene YJR143C,0.8
same,The level of expressed mRNA in the presence of chemical substance/The level of expressed mRNA in the absence of chemical substance,yeast gene YJR148W,1.7
same,The level of expressed mRNA in the presence of chemical substance/The level of expressed mRNA in the absence of chemical substance,yeast gene YJR155W,1.4
